Where a SMILES comes first, the peptide text is derived from it.
What was measured:
Growth Hormone secretion [1] = assay: Growth Hormone secretion in female mice after subcutaneous GRF analog; format: in vivo; details: female CD-1 mice; 10 μg/mouse subcutaneous; plasma 10 minutes after injection
How it was run: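 Female CD-1 mice (20–25 g) got a subcutaneous dose of 10 μg/mouse GRF analog in 20 mM sodium acetate + 5% mannitol, pH 5. Plasma was taken by cardiac puncture 10 min after dosing into K3EDTA. GH was measured by rat/mouse GH ELISA on 20-fold diluted plasma.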

human GRF receptor = biological target: T1, human GRF receptor (Homo sapiens, UniProt Q02643); assay: Alkaline phosphatase (AP) assay, GHRHr agonist activity; format: cell-based; details: BHK cells stably expressing human GRF receptor and alkaline phosphatase reporter gene; 24 hrs stimulation; read-out: EC50 (nM) as assessed by alkaline phosphatase (AP) induction
T1 construct: expressed in transfected cells; host or cells: baby hamster kidney (BHK) cells, stably transfected
T1 sequence (Q02643 23-423): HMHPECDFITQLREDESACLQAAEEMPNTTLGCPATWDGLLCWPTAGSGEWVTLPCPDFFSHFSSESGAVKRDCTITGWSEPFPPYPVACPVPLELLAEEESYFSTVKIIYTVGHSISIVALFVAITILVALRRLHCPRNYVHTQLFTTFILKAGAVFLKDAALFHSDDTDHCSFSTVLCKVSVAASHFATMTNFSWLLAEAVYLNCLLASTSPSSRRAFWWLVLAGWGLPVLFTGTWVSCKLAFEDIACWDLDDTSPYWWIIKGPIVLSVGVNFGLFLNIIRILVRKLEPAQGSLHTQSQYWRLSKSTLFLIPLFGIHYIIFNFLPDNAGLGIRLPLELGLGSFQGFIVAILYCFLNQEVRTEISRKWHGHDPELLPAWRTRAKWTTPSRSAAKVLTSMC
Method: The activity of representative GRF peptides was tested on baby hamster kidney (BHK) cells stably transfected to express the human GRF receptor and an alkaline phosphatase reporter gene. Cells were cultured 24 hours before stimulation, in 96-well plates, at a concentration of 0.5×10^5 cells/well. Before stimulation, cells were washed twice with DPBS and incubated 10-30 min in assay buffer (DMEM without phenol red supplemented with 20 mM HEPES and 1% heat inactivated fetal bovine serum (FBS). The dose response curve of the GRF peptides was done for 24 hrs with concentrations of peptides from 10^−5 M to 10^−11 M. Supernatant was collected and analysis of alkaline phosphatase levels was performed using the Alkaline Phosphatase detection kit from Applied Biosystems.
The in vitro activity of representative GRF analogs was tested on baby hamster kidney (BHK) cells expressing human GHRHr.

Growth Hormone secretion [2] = assay: Growth Hormone secretion in female rats after subcutaneous GRF analog; format: in vivo; details: female Sprague-Dawley rats; 10 μg/rat subcutaneous; plasma 0-60 minutes
How it was run: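 Female Sprague-Dawley rats (250–300 g), isoflurane-anaesthetised with carotid cannula, got GRF analog 10 μg/rat s.c. in 20 mM AcONa + 5% mannitol, pH 5. Blood was drawn at 0, 10, 20, 30, 45 and 60 min (4–8 rats per group per time point). Plasma GH was measured by rat/mouse GH ELISA on 20-fold diluted samples.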

[3] = following intravenous injection in humans; cited from earlier work

Row | Compound | GH levels 10 min (Growth Hormone secretion [1]) [ng/mL] | EC50 (human GRF receptor) [nM] | Mean AUC (GH Area Under the curve, GH concentration over time) (Growth Hormone secretion [2]) | Mean Cmax (ng/ml) of Growth Hormone secretion (Growth Hormone secretion [2]) [ng/mL] | half-life [3]
1 | CC[C@H](C)[C@H](NC(=O)[C@H](C)NC(=O)[C@H](CC(=O)O)NC(=O)[C@@H](C)NC(=O)[C@@H](N)Cc1ccc(O)cc1)C(=O)N[C@@H](Cc1ccccc1)C(=O)N[C@H](C(=O)N[C@@H](CC(=O)O)C(=O)N[C@@H](CO)C(=O)N[C@@H](Cc1ccc(O)cc1)C(=O)N[C@@H](CCCNC(=N)N)C(=O)N[C@@H](CCCCN)C(=O)N[C@H](C(=O)N[C@@H](CC(C)C)C(=O)N[C@@H](C)C(=O)N[C@@H](CCC(N)=O)C(=O)N[C@@H](CC(C)C)C(=O)N[C@@H](CCCCN)C(=O)N[C@@H](C)C(=O)N[C@@H](CCCNC(=N)N)C(=O)N[C@@H](CCC(N)=O)C(=O)N[C@@H](CC(=O)O)C(=O)N[C@H](C(=O)N[C@@H](CC(C)C)C(=O)N[C@@H](C)C(=O)N[C@@H](CCCNC(=N)N)C(=O)N[C@@H](C)C(=O)N[C@@H](C)C(=O)N[C@@H](CCCNC(=N)N)C(=O)N[C@@H](C)C(=O)N[C@@H](C)C(=O)N[C@@H](CCCNC(=N)N)C(N)=O)[C@@H](C)CC)C(C)C)[C@@H](C)O [SEQ ID NO: 28, Y-a-DAIFTDSYRKVLAQLKARQDILARAARAAR-NH2] (HELM PEPTIDE1{Y.[dA].D.A.I.F.T.D.S.Y.R.K.V.L.A.Q.L.K.A.R.Q.D.I.L.A.R.A.A.R.A.A.R.[am]}$$$$V2.0) | 449.7 | 0.11 | 17633 | 806.2 | –
2 | CC/C=C/CC(=O)N[C@@H](Cc1ccc(O)cc1)C(=O)N[C@@H](C)C(=O)N[C@@H](CC(=O)O)C(=O)N[C@@H](C)C(=O)N[C@H](C(=O)N[C@@H](Cc1ccccc1)C(=O)N[C@H](C(=O)N[C@@H](CC(=O)O)C(=O)N[C@@H](CO)C(=O)N[C@@H](Cc1ccc(O)cc1)C(=O)N[C@@H](CCCNC(=N)N)C(=O)N[C@@H](CCCCN)C(=O)N[C@H](C(=O)N[C@@H](CC(C)C)C(=O)N[C@@H](C)C(=O)N[C@@H](CCC(N)=O)C(=O)N[C@@H](CC(C)C)C(=O)N[C@@H](CCCCN)C(=O)N[C@@H](C)C(=O)N[C@@H](CCCNC(=N)N)C(=O)N[C@@H](CCC(N)=O)C(=O)N[C@@H](CC(=O)O)C(=O)N[C@@H](CC(C)C)C(=O)N[C@@H](CC(C)C)C(=O)N[C@@H](C)C(=O)N[C@@H](CCCNC(=N)N)C(=O)N[C@@H](C)C(=O)N[C@@H](C)C(=O)N[C@@H](CCCNC(=N)N)C(=O)N[C@@H](C)C(=O)N[C@@H](C)C(=O)N[C@@H](CCCNC(=N)N)C(N)=O)C(C)C)[C@@H](C)O)[C@@H](C)CC [SEQ ID NO: 32, Trans-3-hexenoyl-YADAIFTDSYRKVLAQLKARQDLLARAARAAR-NH2] (HELM PEPTIDE1{[CC/C=C/CC(=O)[*:2]].Y.A.D.A.I.F.T.D.S.Y.R.K.V.L.A.Q.L.K.A.R.Q.D.L.L.A.R.A.A.R.A.A.R.[am]}$$$$V2.0) | 401.6 | 0.11 | 10500 | 514.8 | –
3 | Ac-YADAIFTDSYRKVLAQLSARKLLQDILSR-NH2 [SEQ ID NO: 43, Ac-YADAIFTDSYRKVLAQLSARKLLQDILSR-NH2, reference compound] | 277 | 0.25 | 2128 | 83.6 | –
4 | H-YGDAIFTDSYRKVLAQLKARQDILARAARAAR-NH2 [SEQ ID NO: 34, YGDAIFTDSYRKVLAQLKARQDILARAARAAR-NH2] | – | 0.2 | 11046 | 539.7 | –
5 | H-YSDAIFTDSYRKVLAQLKARQDILARAARAAR-NH2 [SEQ ID NO: 33, YSDAIFTDSYRKVLAQLKARQDILARAARAAR-NH2] | – | 0.25 | 12467 | 499.0 | –
6 | Tyr-Ala-Asp-Ala-Ile-Phe-Thr-Asn-Ser-Tyr-Arg-Lys-Val-Leu-Gly-Gln-Leu-Ser-Ala-Arg-Lys-Leu-Leu-Gln-Asp-Ile-Met-Ser-Arg [hGRF(1-29)] | – | – | – | – | approximately 12 min

Source: patent US8361964B2, “Growth hormone releasing factor (GRF) analogs and uses thereof” (Theratechnologies Inc., priority 2011, dated 2013)
